# Measured values as given in patent US20230218774A1, “DRUG ANTIBODY CONJUGATES” (PHARMA MAR, S.A., priority 2019, published 2023).
# Values joined by “and” are separate entries in the source; they are usually repeats but may differ in a detail not shown here. Equal values may be shown once.
# Experiments:
# Assay type in all cases: cell-based
# [1] = test system: MDA-MB-231 (breast cancer, HER2−); assay: SRB colorimetric cytotoxicity assay, MDA-MB-231; settings: Homo sapiens, MDA-MB-231, 72 h
# Source text: (§1) The aim of the assay was to evaluate the in vitro cytostatic (ability to delay or arrest tumor cell growth) or cytotoxic (ability to kill tumor cells) activity of the samples being tested.
# (§2) The following human tumor cell lines were obtained from the American Type Culture Collection (ATCC): SK-BR-3 (ATCC HB-30), HCC-1954 (ATCC CRL-2338) (both being breast cancer, HER2+), MDA-MB-231 (ATCC HTB-26), MCF-7 (ATCC HTB-22) (both being breast cancer, HER2−).
# (§3) For SK-BR-3, HCC-1954, MDA-MB-231 and MCF-7 cells, a colorimetric assay using Sulforhodamine B (SRB) was adapted for quantitative measurement of cell growth and cytotoxicity, as described by V. Vichai and K. Kirtikara. In “Sulforhodamine B colorimetric assay for cytotoxicity screening”, Nature Protocols, 2006, 1: 1112-1116. Briefly, cells were seeded in 96-well microtiter plates and allowed to stand for 24 hours in drug-free medium before treatment with vehicle alone or with the tested substances for 72 hours. For quantification, cells were washed twice with phosphate buffered saline (PBS), fixed for 15 min in 1% glutaraldehyde solution, rinsed twice with PBS, stained in 0.4% (w/v) SRB with 1% (v/v) acetic acid solution for 30 min, rinsed several times with 1% acetic acid solution and air-dried.
# (§4) Cell survival was expressed in all cases as percentage of control, untreated cell survival. […]
# [2] = test system: SK-BR-3 (breast cancer, HER2+); assay: SRB colorimetric cytotoxicity assay, SK-BR-3; settings: Homo sapiens, SK-BR-3, 72 h
# Source text: as §1, §2, §3, §4
# [3] = test system: HCC-1954 (breast cancer, HER2+); assay: SRB colorimetric cytotoxicity assay, HCC-1954; settings: Homo sapiens, HCC1954, 72 h
# Source text: as §1, §2, §3, §4
# [4] = test system: MCF-7 (breast cancer, HER2−); assay: SRB colorimetric cytotoxicity assay, MCF-7; settings: Homo sapiens, MCF7, 72 h
# Source text: as §1, §2, §3, §4
smiles,measurement,setting,value
C=C1C[C@](OC)([C@H](O)C(=O)N[C@@H](OC)[C@@H]2C[C@@H](O)C(C)(C)[C@@H](C[C@@H](COC(=O)NCCCNC(=O)CCCCCN3C(=O)C=CC3=O)OC)O2)O[C@H](C)[C@@H]1C (racemic) [DL-2],IC50,[1],0.0652 µg/mL and 83.3 nM
same,IC50,[2],0.108 µg/mL and 138 nM
same,IC50,[3],0.076 µg/mL and 97.1 nM
same,IC50,[4],0.0759 µg/mL and 97 nM
